According to patent publication US20040110771A1, “7-(r)-aminotriazolopyrimidines, the production thereof and use of the same for combatting phytopathogenic fungi” (priority 2000, published 2004):

Key:
Type in all cases: in vivo
Puccinia recondita = assay: Curative activity against brown rust of wheat caused by Puccinia recondita; conditions: curative spray 24 h after inoculation, wheat seedlings "Kanzler", 7 days
Method: (§1) The active compounds were prepared separately or jointly as a 10% strength emulsion in a mixture of 70% by weight of cyclohexanone, 20% by weight of Nekanil® LN (Lutensol® AP6, wetting agent having emulsifying and dispersing action based on ethoxylated alkylphenols) and 10% by weight of Wettol® EM (nonionic emulsifier based on ethoxylated castor oil) and diluted with water to the desired concentration.
Leaves of potted wheat seedlings of the cultivar “Kanzler” were dusted with spores of brown rust (Puccinia recondita). The pots were then placed in a chamber with high atmospheric humidity (90 to 95%) at 20-22° C. for 24 hours. During this period, the spores germinated and the germinal tubes penetrated into the leaf tissue. The following day, the infected plants were sprayed to runoff point with an aqueous preparation of active compound which had been prepared from a stock solution made of 10% of active compound, 85% of cyclohexanone and 5% of emulsifier. After the spray coating had dried on, the test plants were cultivated in a greenhouse at 20-22° C. and 65-70% relative atmospheric humidity for 7 days. The extent of the rust fungus development on the leaves was then determined.

Pyrenophora teres = assay: Activity against net blotch of barley caused by Pyrenophora teres; conditions: barley seedlings "Igri", inoculated 24 h after spraying, 6 days
Method: as §1
Leaves of potted barley seedlings of the cultivar “Igri” were sprayed to runoff point with an aqueous preparation of active compound which had been prepared from a stock solution made of 10% of active compound, 85% of cyclohexanone and 5% of emulsifier and were inoculated 24 hours after the spray coating had dried on with an aqueous spore suspension of Pyrenophora teres, the net blotch pathogen. The test plants were then placed in a greenhouse at 20-24° C. and 95-100% relative atmospheric humidity. After 6 days, the extent of the development of the disease was determined visually in % infection of the entire leaf area.

[1] = system: Blumeria graminis forma specialis tritici; assay: Activity against mildew of wheat caused by Blumeria graminis forma specialis tritici; conditions: wheat seedlings "Kanzler", dusted with spores 24 h after spraying, 7 days
Method: as §1
Leaves of potted wheat seedlings of the cultivar “Kanzler” were sprayed to runoff point with an aqueous preparation of active compound which had been prepared from a stock solution made of 10% of active compound, 85% of cyclohexanone and 5% of emulsifier and were dusted 24 hours after the spray coating had dried on with spores of mildew of wheat (Blumeria graminis forma specialis tritici). The test plants were then placed in a greenhouse at 20-24° C. and 60-90% relative atmospheric humidity. After 7 days, the extent of the mildew development was determined visually in % infection of the entire leaf area.

Compound	% infection of the leaves after application of an aqueous preparation comprising . . . ppm of active compound (Puccinia recondita; 16 ppm) [%]	% infection of the leaves after application of an aqueous preparation comprising . . . ppm of active compound (Puccinia recondita; 63 ppm) [%]	% infection of the leaves after application of an aqueous preparation comprising . . . ppm of active compound (Puccinia recondita; 250 ppm) [%]	% infection of the leaves after application of an aqueous preparation comprising . . . ppm of active compound (Pyrenophora teres; 16 ppm) [%]	% infection of the leaves after application of an aqueous preparation comprising . . . ppm of active compound (Pyrenophora teres; 63 ppm) [%]	% infection of the leaves after application of an aqueous preparation comprising . . . ppm of active compound (Pyrenophora teres; 250 ppm) [%]	% infection of the leaves after application of an aqueous preparation comprising . . . ppm of active compound ([1]; 16 ppm) [%]	% infection of the leaves after application of an aqueous preparation comprising . . . ppm of active compound ([1]; 63 ppm) [%]	% infection of the leaves after application of an aqueous preparation comprising . . . ppm of active compound ([1]; 250 ppm) [%]
Cc1cccc(F)c1-c1c(Cl)nc2ncnn2c1NC(C)C(C)C (single isomer, unassigned) [I.-11a]	80	5	5	5	0	0	7	7	5
Cc1cccc(F)c1-c1c(Cl)nc2ncnn2c1N[C@H](C)C(C)C (single isomer, unassigned) [I.-11b]	–	20	5	–	15	0	–	30	30
CC[C@@H](C)Nc1c(-c2c(F)cccc2Cl)c(Cl)nc2ncnn12 [I.-1]	5	3	0	50	0	–	–	–	–
C[C@@H](Nc1c(-c2c(F)cccc2Cl)c(Cl)nc2ncnn12)C(C)(C)C [I.-3]	–	–	20	–	–	–	–	–	–
C[C@@H](Nc1c(-c2c(F)cc(F)cc2F)c(Cl)nc2ncnn12)C(C)(C)C [I.-15, (R)-5-chloro-7-(3,3-dimethylbut-2-yl)amino-6-(2,4,6-trifluoro-phenyl)-1,2,4-triazolo[1,5-a]pyrimidine]	0	0	0	–	–	–	7	7	3
CCCC[C@@H](C)Nc1c(-c2c(F)cc(F)cc2F)c(Cl)nc2ncnn12 [I.-27]	–	–	40	3	0	0	–	–	–
COCC(C)Nc1c(-c2c(F)cc(F)cc2F)c(Cl)nc2ncnn12 (stereo not shown) [I.-32]	–	70	15	5	0	0	–	–	–
CC[C@@H](C)Nc1c(-c2ccccc2Cl)c(Cl)nc2ncnn12 [I.-42]	30	20	5	–	–	–	–	–	–
CC[C@H](C)Nc1c(-c2c(F)cccc2Cl)c(Cl)nc2ncnn12 [comparison (S)-amine of I.-1]	60	20	15	100	20	–	–	–	–
CC(Nc1c(-c2c(F)cccc2Cl)c(Cl)nc2ncnn12)C(C)(C)C [comparison (S)-amine of I.-3]	–	–	100	–	–	–	–	–	–
C[C@H](Nc1c(-c2c(F)cccc2F)c(Cl)nc2ncnn12)C(C)(C)C [comparison (S)-amine of I.-6]	–	–	–	60	5	–	–	90	90
Cc1cccc(F)c1-c1c(Cl)nc2ncnn2c1NC(C)C(C)(C)C [comparison (S)-amine of I.-12a]	–	–	–	100	100	100	100	100	100
Cc1cccc(F)c1-c1c(Cl)nc2ncnn2c1NC(C)C(C)(C)C [comparison (S)-amine of I.-12b]	–	–	–	100	100	100	100	100	100
C[C@H](Nc1c(-c2c(F)cc(F)cc2F)c(Cl)nc2ncnn12)C(C)(C)C [comparison (S)-amine of I.-15]	100	100	100	–	–	–	90	80	40
CCCC[C@H](C)Nc1c(-c2c(F)cc(F)cc2F)c(Cl)nc2ncnn12 [comparison (S)-amine of I.-27]	–	–	100	100	90	7	–	–	–
C[C@H](Nc1c(-c2c(F)cc(F)cc2F)c(Cl)nc2ncnn12)C1CCCCC1 [comparison (S)-amine of I.-31]	–	–	–	100	80	80	50	50	15
COC[C@H](C)Nc1c(-c2c(F)cc(F)cc2F)c(Cl)nc2ncnn12 [comparison (S)-amine of I.-32]	–	100	80	90	80	30	–	–	–
CCC(C)Nc1c(-c2ccccc2Cl)c(Cl)nc2ncnn12 [comparison (S)-amine of I.-42]	100	60	15	–	–	–	–	–	–
